Patent US10770169B2, “Method of providing a treatment to a subject based on a dynamic pathway map” (THE REGENTS OF THE UNIVERSITY OF CALIFORNIA, priority 2010, dated 2020)
Like-named read-outs stand apart in the source and are kept apart here.

Key:
[1] = test system: breast cancer cell lines with aberrant vs normal copy number; experiment: Association of recurrent copy number changes and response (t-test on GI50); format: cell-based, human; conditions: FDR p<0.2
Summary of the method: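 A t-test compared GI50 between cell lines with high amplification at 8q24 (MYC), 11q13 (CCND1) or 20q13 (STK15/AURKA) and lines with low or no amplification, grouped together. Lines whose GI50 equalled the maximum concentration tested were excluded. Compounds with any group under five samples were also excluded.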

CDK4 = CDK4 (Homo sapiens, UniProt P11802); conditions: cited from earlier work
Chain of CDK4 (P11802 whole entry, species assumed): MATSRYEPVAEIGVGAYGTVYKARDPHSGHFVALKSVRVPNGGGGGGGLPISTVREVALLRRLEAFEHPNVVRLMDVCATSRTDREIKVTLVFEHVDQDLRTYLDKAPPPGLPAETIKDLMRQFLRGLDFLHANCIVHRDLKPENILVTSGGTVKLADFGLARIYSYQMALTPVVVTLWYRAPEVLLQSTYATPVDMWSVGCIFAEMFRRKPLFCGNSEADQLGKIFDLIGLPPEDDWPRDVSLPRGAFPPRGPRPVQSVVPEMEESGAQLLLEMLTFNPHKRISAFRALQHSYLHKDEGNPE
Chain of CDK4 (P24385 whole entry partner, species assumed): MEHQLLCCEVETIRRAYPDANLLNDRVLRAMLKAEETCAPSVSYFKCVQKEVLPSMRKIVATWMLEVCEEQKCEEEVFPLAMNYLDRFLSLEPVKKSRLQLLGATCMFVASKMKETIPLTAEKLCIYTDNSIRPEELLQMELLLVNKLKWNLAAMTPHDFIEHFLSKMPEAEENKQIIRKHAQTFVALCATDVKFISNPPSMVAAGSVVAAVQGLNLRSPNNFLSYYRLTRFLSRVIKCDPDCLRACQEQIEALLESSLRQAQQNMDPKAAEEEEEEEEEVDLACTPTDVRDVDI

[2] = test system: luminal, basal, claudin-low and ERBB2AMP breast cancer cell lines; experiment: Associations of clinically relevant subtypes and response (non-parametric ANOVA or t-test on GI50 ranks); format: cell-based, human; conditions: Table 6; most sensitive subtype, FDR p<0.20
Summary of the method: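 Significance was set at FDR p<0.20 after combining p-values across three test sets. Subtype–response associations came from rank-based non-parametric ANOVA or t-tests on GI50. For three-class comparisons, post-hoc tests of each group against the rest identified the most sensitive group, with FDR correction.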

[3] = test system: panel of 55 breast cancer cell lines; experiment: Cell growth inhibition assay (Cell Titer Glo, 72 h, 9 doses; GI50, TGI, LC50); format: cell-based, human; conditions: Homo sapiens, read-out: GI50 (converted)

O=C1c2ccccc2-[n+]2ccc3c([nH]c4ccccc43)c21 [Fascaplysin]
association of response with homozygous deletion at 9p21 (CDKN2A) [1]: associated with response
inhibition of CDK4 (CDK4): inhibited CDK4
Subtype specificity [2]: Luminal
GI50 ([3]; 600MPE cell line, censored GI50 values): 288 nM
GI50 ([3]; AU565, AU565 cell line, censored GI50 values): 120 nM
GI50 ([3]; AU565, cell line AU565): 120 nM
GI50 ([3]; BT-20, BT20 cell line, censored GI50 values): 309 nM
GI50 ([3]; BT-20, cell line BT20): 309 nM
GI50 ([3]; BT-474, BT474 cell line, censored GI50 values): 191 nM
GI50 ([3]; BT-474, cell line BT474): 191 nM
GI50 ([3]; BT-483, BT483 cell line, censored GI50 values): 66.1 nM
GI50 ([3]; BT-483, cell line BT483): 66.1 nM
GI50 ([3]; BT-549, BT549 cell line, censored GI50 values): 513 nM
GI50 ([3]; BT-549, cell line BT549): 513 nM
GI50 ([3]; CAMA-1, CAMA1 cell line, censored GI50 values): 245 nM
GI50 ([3]; CAMA-1, cell line CAMA1): 245 nM
GI50 ([3]; HCC38, HCC38 cell line, censored GI50 values): 275 nM
GI50 ([3]; HCC38, cell line HCC38): 275 nM
GI50 ([3]; HCC70, HCC70 cell line, censored GI50 values): 126 nM
GI50 ([3]; HCC70, cell line HCC70): 126 nM
GI50 ([3]; HCC202, HCC202 cell line, censored GI50 values): 42.7 nM
GI50 ([3]; HCC202, cell line HCC202): 42.7 nM
GI50 ([3]; HCC1143, HCC1143 cell line, censored GI50 values): 275 nM
GI50 ([3]; HCC1143, cell line HCC1143): 275 nM
GI50 ([3]; HCC1187, HCC1187 cell line, censored GI50 values): 15.5 nM
GI50 ([3]; HCC1187, cell line HCC1187): 15.5 nM
GI50 ([3]; HCC1395, HCC1395 cell line, censored GI50 values): 324 nM
GI50 ([3]; HCC1395, cell line HCC1395): 324 nM
GI50 ([3]; HCC1419, HCC1419 cell line, censored GI50 values): 263 nM
GI50 ([3]; HCC1419, cell line HCC1419): 263 nM
GI50 ([3]; HCC1428, HCC1428 cell line, censored GI50 values): 37.2 nM
GI50 ([3]; HCC1428, cell line HCC1428): 37.2 nM
GI50 ([3]; HCC1500, HCC1500 cell line, censored GI50 values): 224 nM
GI50 ([3]; HCC1500, cell line HCC1500): 224 nM
GI50 ([3]; HCC1806, HCC1806 cell line, censored GI50 values): 257 nM
GI50 ([3]; HCC1806, cell line HCC1806): 257 nM
GI50 ([3]; HCC1937, HCC1937 cell line, censored GI50 values): 389 nM
GI50 ([3]; HCC1937, cell line HCC1937): 389 nM
GI50 ([3]; HCC1954, HCC1954 cell line, censored GI50 values): 269 nM
GI50 ([3]; HCC1954, cell line HCC1954): 269 nM
GI50 ([3]; HCC2185 cell line, censored GI50 values): 126 nM
GI50 ([3]; HCC3153 cell line, censored GI50 values): 347 nM
GI50 ([3]; LY2 cell line, censored GI50 values): 7.94 nM
GI50 ([3]; MCF7, MCF7 cell line, censored GI50 values): 191 nM
GI50 ([3]; MCF7, cell line MCF7): 191 nM
GI50 ([3]; MDA-MB-134-VI, MDAMB134VI cell line, censored GI50 values): 224 nM
GI50 ([3]; MDA-MB-157, MDAMB157 cell line, censored GI50 values): 170 nM
GI50 ([3]; MDA-MB-157, cell line MDAMB157): 170 nM
GI50 ([3]; MDA-MB-175-VII, MDAMB175VII cell line, censored GI50 values): 191 nM
GI50 ([3]; MDA-MB-231, MDAMB231 cell line, censored GI50 values): 251 nM
GI50 ([3]; MDA-MB-231, cell line MDAMB231): 251 nM
GI50 ([3]; MDA-MB-361, MDAMB361 cell line, censored GI50 values): 81.3 nM
GI50 ([3]; MDA-MB-361, cell line MDAMB361): 81.3 nM
GI50 ([3]; MDA-MB-415, MDAMB415 cell line, censored GI50 values): 60.3 nM
GI50 ([3]; MDA-MB-415, cell line MDAMB415): 60.3 nM
GI50 ([3]; MDA-MB-436, MDAMB436 cell line, censored GI50 values): 417 nM
GI50 ([3]; MDA-MB-436, cell line MDAMB436): 417 nM
GI50 ([3]; MDA-MB-453, MDAMB453 cell line, censored GI50 values): 87.1 nM
GI50 ([3]; MDA-MB-453, cell line MDAMB453): 87.1 nM
GI50 ([3]; MDA-MB-468, MDAMB468 cell line, censored GI50 values): 77.6 nM
GI50 ([3]; MDA-MB-468, cell line MDAMB468): 77.6 nM
GI50 ([3]; SK-BR-3, SKBR3 cell line, censored GI50 values): 224 nM
GI50 ([3]; SK-BR-3, cell line SKBR3): 224 nM
GI50 ([3]; SUM52PE, SUM52PE cell line, censored GI50 values): 182 nM
GI50 ([3]; SUM52PE, cell line SUM52PE): 182 nM
GI50 ([3]; SUM149PT, SUM149PT cell line, censored GI50 values): 398 nM
GI50 ([3]; SUM149PT, cell line SUM149PT): 398 nM
GI50 ([3]; SUM185PE, SUM185PE cell line, censored GI50 values): 55 nM
GI50 ([3]; SUM185PE, cell line SUM185PE): 55 nM
GI50 ([3]; SUM225CWN, SUM225CWN cell line, censored GI50 values): 67.6 nM
GI50 ([3]; SUM225CWN, cell line SUM225CWN): 67.6 nM
GI50 ([3]; SUM1315MO2, SUM1315MO2 cell line, censored GI50 values): 417 nM
GI50 ([3]; SUM-159-PT, SUM159PT cell line, censored GI50 values): 427 nM
GI50 ([3]; SUM-159-PT, cell line SUM159PT): 427 nM
GI50 ([3]; T47D, T47D cell line, censored GI50 values): 457 nM
GI50 ([3]; T47D, cell line T47D): 457 nM
GI50 ([3]; UACC-893, UACC893 cell line, censored GI50 values): 186 nM
GI50 ([3]; UACC-893, cell line UACC893): 186 nM
GI50 ([3]; ZR-75-1, ZR751 cell line, censored GI50 values): 355 nM
GI50 ([3]; ZR-75-1, cell line ZR751): 355 nM
GI50 ([3]; ZR-75B, ZR75B cell line, censored GI50 values): 407 nM
GI50 ([3]; ZR-75B, cell line ZR75B): 407 nM
GI50 ([3]; cell line 600MPE): 288 nM
GI50 ([3]; cell line HCC2185): 126 nM
GI50 ([3]; cell line HCC3153): 347 nM
GI50 ([3]; cell line LY2): 7.94 nM
GI50 ([3]; cell line MDAMB134V): 224 nM
GI50 ([3]; cell line MDAMB175V): 191 nM
GI50 ([3]; cell line SUM1315MO): 417 nM
